Patent publication EP0156772A2, “Novel pharmaceutical use for CGRPs” (SANDOZ AG, priority 1984, dated 1985)

Columns and labels:
[1] = Clinical trial B: human CGRP s.c. accompanied by salmon or human calcitonin; type: in vivo, volunteer subjects (male and female); settings: human CGRP s.c. 10 to 200 µg accompanied by salmon or human calcitonin 5 to 100 I.U. (or M.R.C) s.c. or i.m.
Source text: The methodology of clinical trial A is repeated, with administration of human CGRP in accordance with regimen 1.3. In this trial however administration is accompanied by administration of salmon or human calcitonin at dosages of from 5 to 100 I.U. (or M.R.C), [e.g. at dosages of 5, 10, 25, 50 or 100 I.U. (or M.R.C.)] administered by injection either s.c. or i.m.

[2] = Clinical trial A: human CGRP in active Paget's disease, serum parameters prior and post administration; type: in vivo, volunteer subjects (male and female)
Method: Human CGRP is employed as trial substance and is tested by administration in accordance with the following regimens.
The following parameters are measured prior and post-administration: circulating calcium serum levels: alkaline phosphatase: hydroxyproline: bone specific protein levels.

[3] = Continuous on-line measurement of free calcium concentrations in the extra-corporeal blood circulation; type: in vivo, young rabbits; settings: for calcaemic response: rat CGRP i.v.
Method: • The general scheme for this test is represented in figure 1 attached: • A flow-through electrode system with two Ca2+^-selective liquid membrane electrodes is inserted in the arterio-venous extracor- poreal blood circulatory system of the test animal this being established by means of indwelling catheters connecting the femoral artery with femoral vein.
The blood is pumped from the artery to the vein at a flow rate of 18 ml/h through the system containing Ca2+^-selective electrodes. A second peristaltic pump aspirates the reference solution of electrolytes, which is transported at a flow rate of 0.9 ml/h, passing the compartment of the reference electrode and mixed with the circulating blood at the site of the common electrode. The mixed fluids are then returned into the ciculatory system of the animal.
The Ca2+^-selective electrode allows the potentiometric measurement of the ionized calcium quantitatively. The potential difference between the reference electrode and the Ca2+^-selective electrode is measured differentially relative to the common electrode. The analogue signal of the difference amplifier is processed by a digital voltmeter. Results are obtained in mV and are continously recorded as a function of time. The voltage difference is […].
Following administration of CGRPs i.v. to the test animal, a potent influence on Ca2+ concentration over extended periods of time and up to at least 5 hours is observed at dosages of from about 0.1 to about 25 µg/kg. More importantly results observed indicate that CGRPs exert both a hypo- and hyper-calcaemic effect which is both dose- and time-dependent. […] Specific results obtained following Ix administration of rat CGRP at varying dosages and illustrating activity profile are shown in the accompanying Figs. 2 through 5. • In all cases administration of test substance occurs at time • Fig.2 .: This is a plot for observed change in calcium level [Δ% calcaemia] with time, following i.v. administration of rat CGRP at dosages of from 0.156 µg/kg to 5.0 µg/kg.

Compound | influence on measured serum parameters [1] | reduction of circulating serum calcium levels ([1]; compared with salmon calcitonin alone) | circulating serum calcium levels ([2]; i.v. 0.1 to 20 µg, i.v. infusion 10 to 100 µg, s.c. 10 to 200 µg, intranasal 10 to 500 µg, or s.c. daily for 5 to 7 days) | alkaline phosphatase levels ([2]; same regimens) | hydroxyproline levels ([2]; same regimens) | bone specific proteins ([2]; same regimens, in particular proteins reflecting bone metabolic turn over) | observed change in calcium level, course of response ([3]; Fig. 6, i.v., 2.5 µg/kg, groups of 6 animals) | AUCS (areas under curve) ([3]; Fig. 2, i.v., 0.156 µg/kg to 5.0 µg/kg, calcium level versus time) | observed change in calcium level [Δ% calcaemia] ([3]; Fig. 2, i.v., dosages of from 0.156 µg/kg to 5.0 µg/kg) | observed change in calcium level after the initial hypocalcaemic response ([3]; Fig. 5, 10 pg/kg i.v.) | hypocalcaemic response ([3]; Fig. 5, 10 pg/kg i.v., compared with untreated control) | duration of hypercalcaemic response following initial administration ([3]; Fig. 5, 10 pg/kg i.v., printed 'up to at least 5 hours') | observed change in calcium level ([3]; Figs 3 to 4, i.v., 2.5 and 5.0 µg/kg, groups of four test animals, compared with untreated controls) | calcaemic response [3] | calcaemic response ([3]; dosages in excess of 5 µg/kg)
CC(C)C[C@H](NC(=O)CNC(=O)[C@H](C)NC(=O)[C@H](CC(C)C)NC(=O)[C@H](CCCNC(=N)N)NC(=O)[C@H](Cc1c[nH]cn1)NC(=O)[C@@H](NC(=O)[C@@H](NC(=O)[C@@H]1CSSC[C@H](NC(=O)[C@H](C)N)C(=O)N[C@@H](CC(=O)O)C(=O)N[C@@H]([C@@H](C)O)C(=O)N[C@@H](C)C(=O)N[C@@H]([C@@H](C)O)C(=O)N1)C(C)C)[C@@H](C)O)C(=O)N[C@@H](CC(C)C)C(=O)N[C@@H](CO)C(=O)N[C@@H](CCCNC(=N)N)C(=O)N[C@@H](CO)C(=O)NCC(=O)NCC(=O)N[C@H](C(=O)N[C@H](C(=O)N[C@@H](CCCCN)C(=O)N[C@@H](CC(N)=O)C(=O)N[C@@H](CC(N)=O)C(=O)N[C@@H](Cc1ccccc1)C(=O)N[C@H](C(=O)N1CCC[C@H]1C(=O)N[C@H](C(=O)N[C@@H](CC(N)=O)C(=O)N[C@H](C(=O)NCC(=O)N[C@@H](CO)C(=O)N[C@@H](CCCCN)C(=O)N[C@@H](C)C(=O)N[C@@H](Cc1ccccc1)C(N)=O)C(C)C)[C@@H](C)O)C(C)C)C(C)C)C(C)C [human CGRP] | observed in this trial as in trial A | superior to that observed on administration of salmon calcitonin alone | significant reduction | concomitant reduction | concomitant reduction | marked reduction | parallels that recorded for rat CGRP in Fig. 5 | – | – | – | – | – | – | – | –
CC(C)C[C@H](NC(=O)CNC(=O)[C@H](C)NC(=O)[C@H](CC(C)C)NC(=O)[C@H](CCCNC(=N)N)NC(=O)[C@H](Cc1c[nH]cn1)NC(=O)[C@@H](NC(=O)[C@@H](NC(=O)[C@@H]1CSSC[C@H](NC(=O)[C@@H](N)CO)C(=O)N[C@@H](CC(N)=O)C(=O)N[C@@H]([C@@H](C)O)C(=O)N[C@@H](C)C(=O)N[C@@H]([C@@H](C)O)C(=O)N1)C(C)C)[C@@H](C)O)C(=O)N[C@@H](CC(C)C)C(=O)N[C@@H](CO)C(=O)N[C@@H](CCCNC(=N)N)C(=O)N[C@@H](CO)C(=O)NCC(=O)NCC(=O)N[C@H](C(=O)N[C@H](C(=O)N[C@@H](CCCCN)C(=O)N[C@@H](CC(=O)O)C(=O)N[C@@H](CC(N)=O)C(=O)N[C@@H](Cc1ccccc1)C(=O)N[C@H](C(=O)N1CCC[C@H]1C(=O)N[C@H](C(=O)N[C@@H](CC(N)=O)C(=O)N[C@H](C(=O)NCC(=O)N[C@@H](CO)C(=O)N[C@@H](CCC(=O)O)C(=O)N[C@@H](C)C(=O)N[C@@H](Cc1ccccc1)C(N)=O)C(C)C)[C@@H](C)O)C(C)C)C(C)C)C(C)C [rat CGRP] | – | – | – | – | – | – | – | statistically linear | decrease (hypocalcaemia) | reverse hypercalcaemic response which continues very strongly | though strongly marked, is transitory only | at least 5 hours | hypocalcaemia is again observed | primarily hypo- calcaemic response | primarily hyper-calcaemic response preceeded by a transient hypo-calcaemic response at the lower end of the dosage range
